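Exposure lasted 48 hours, with cells grown in 96-well plates and compounds tested at five concentrations. GI50: concentration for 50% inhibition of growth. TGI: total growth inhibition.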

Common to all, as to assay: growth of human tumour cells (NCI), 48 h
Assay [1] relates to HS 578T breast.
For assay [2], the system named is KM12 colon.
The subject of assay [3] is MOLT-4 leukemia.
Assay [4] has as its system NCI-H226 lung.
Assay [5] deals with NCI-H460 lung.
Assay [6] deals with SN12C renal.
Assay [7] deals with SNB-19 CNS.
Assay [8] relates to SNB-75 CNS.
Assay [9] has as its system EKVX NSCLC.
The subject of assay [10] is UACC-257 melanoma.

On to `CN(CCC#N)c1ccc(/C=C(\C#N)c2cccc(C(F)(F)F)c2)cc1`, for which the GI50 in assay [1] is 4.3 µM; in [2] it was 2.97 µM; in assay [3], 3.06 µM; in assay [4], 6.02 µM; in assay [5], 3.76 µM; in assay [6], 4.17 µM. The GI50 is 17 µM in assay [7] and 4.47 µM in assay [8]. In addition, the TGI in assay [1], in assay [2], in assay [3], in [4], in assay [5] and in assay [6] was above 100 µM each time. The TGI in [7] and in [8] was above 100 µM each time.
Regarding `O=C(Cn1c(=O)c(-c2ccccc2)nc2ccccc21)c1ccc(Cl)cc1`, the GI50 in assay [9] was 94.2 µM; in [1], 43.5 µM; in [2], 98.1 µM; in assay [3], above 100 µM; in assay [4], 53.5 µM; in assay [5] it was 75.6 µM. The GI50 is 48.6 µM in assay [6], 42.2 µM in assay [7] and above 100 µM in assay [10]. Besides, the TGI in [9], in assay [1], in assay [2], in [3], in [4] and in assay [5] was above 100 µM each time. The TGI in assay [6], in [7] and in assay [10] was above 100 µM in each case.
Take `CCN(CC)C(=O)CC1=C(C)/C(=C/c2[nH]c(-c3ccc[nH]3)cc2OC)N=C1C`: the GI50 in assay [9] was 0.452 µM; in assay [1], 0.656 µM; in [2], 0.374 µM; in [3], 0.357 µM; in [4], 0.531 µM; in assay [5] it was 0.366 µM. Also, the figures for the GI50 in [7], in [8] and in assay [10] were 4.1 µM, 0.307 µM and 1.03 µM, respectively. The TGI in assay [9] was determined as 38.7 µM; in assay [1] it was 7.97 µM; in assay [2], 59.2 µM; in assay [3] it was 39.4 µM; in assay [4], 6.11 µM; in assay [5] it was 14.2 µM. Besides, the TGI in [7] is above 100 µM; in [8] it was 3.35 µM; in assay [10], 4.85 µM.
For `N=Nc1c(OC(=O)Nc2ccccc2)[nH]c2ccccc12`, the TGI was above 100 µM in assay [9]; above 100 µM in assay [1]; 29.3 µM in [2]; 37.9 µM in assay [4]; 25.7 µM in assay [5]; 48.7 µM in [6]. For the same compound, the TGI amounted to 63 µM in [7], 50 µM in assay [8] and 92.2 µM in assay [10].
As for `CN1CCN(CCCOc2cccc3nc(Nc4ccc(Cl)c(F)c4)ccc23)CC1`, the GI50 was 1.89 µM in [9]; 2.12 µM in [1]; 1.77 µM in assay [2]; 1.82 µM in assay [3]; 2.05 µM in [4]; 1.91 µM in assay [5]. The values for the GI50 in assay [6], in assay [7] and in assay [10] were 4.16 µM, 1.86 µM and 2.04 µM, respectively. Further, the TGI is 3.86 µM in [9]; 5.77 µM in assay [1]; 3.43 µM in assay [2]; 3.77 µM in [3]; 4.14 µM in assay [4]; 3.7 µM in [5]. In addition, the TGI in assay [6] worked out at 16 µM; in assay [7] it was 3.53 µM; in assay [10] it was 3.64 µM.
On to `COc1ccc(Cl)cc1Nc1nc(C(F)(F)F)ccc1C(=O)N/N=C/c1ccc([N+](=O)[O-])cc1`, for which the GI50 in assay [9] was 2.01 µM; in assay [1], 2.57 µM; in [2], 1.79 µM; in assay [3] it was 3.82 µM; in [4], 2.01 µM; in assay [5] it was 1.9 µM. The GI50 is 2.33 µM in assay [7], 2.21 µM in [8] and 2.92 µM in assay [10]. Further, the TGI in assay [9] is 9.27 µM; in assay [1], 62.9 µM; in [2], 4.98 µM; in assay [3], 13.2 µM; in [4], 8.65 µM; in assay [5], 4.86 µM. Moreover, the TGI was determined as 13 µM in assay [7], 12.9 µM in assay [8] and 8.7 µM in assay [10].
Turning to `O=C(/C=C1\C(=O)N(Cc2ccc([N+](=O)[O-])cc2)c2ccccc21)c1ccc(OCCN2CCCCC2)cc1`, the GI50 in assay [9] was 1.56 µM; in assay [1] it was 1.71 µM; in [2], 1.81 µM; in assay [3] it was 0.456 µM; in assay [4], 3.14 µM; in assay [5], 1.87 µM. Besides, the GI50 is 1.56 µM in assay [7], 2.22 µM in [8] and 1.95 µM in [10]. In addition, the TGI in [9] was found to be 3.9 µM; in [1], 6.09 µM; in assay [2], 3.54 µM; in [3], 2.73 µM; in assay [4], 21.4 µM; in assay [5], 3.68 µM. The TGI in assay [7] worked out at 2.92 µM; in [8] it was 11.3 µM; in assay [10], 3.57 µM.
Regarding `CCOC(=O)C1=C(C)NC2SC(=O)/C(=C\c3ccccc3Cl)N2C1c1ccccc1` (stereo not drawn), the GI50 in assay [9], in assay [1], in assay [2], in assay [4], in assay [5] and in assay [6] was above 100 µM each time. Besides, the GI50 in assay [7], in assay [8] and in assay [10] was above 100 µM in each case. Besides, the TGI in assay [9], in [1], in assay [2], in assay [4], in assay [5] and in [6] was above 100 µM each time. Besides, the TGI in assay [7], in [8] and in assay [10] was above 100 µM each time.

Source of the values: PubChem BioAssay (NCI).
